One data set relates to HAdV5-GFP. The data set can be described thus: Plaque assay (inhibition of HAdV plaque formation). Format: cell-based, HAdV-5. The following applies: for Selectivity index (SI): ratio of CC50 to IC50 in plaque assay; for inhibition at 10 µM: read-out: Plaque Assay (%) Inhibition (10 μM); for IC50: read-out: Plaque Assay IC50 (μM), HAdV5-GFP, low MOI, 293β5 cell line. Here is the method:
Plaque Assay. […] When cells reached 80-90% confluency, they were infected with HAdV5-GFP (0.06 vp/cell) and rocked for 2 h at 37° C. After the incubation the inoculum was removed, and the cells were washed once with PBS.
Plaque Assay. Compounds were tested using low MOI infections (0.06 vp/cell) and at concentrations of 10 μM and in a dose-response assay ranging from 10 to 0.3 μM in a plaque assay. […] When cells reached 80-90% confluency, they were infected with HAdV5-GFP (0.06 vp/cell) and rocked for 2 h at 37° C. After the incubation the inoculum was removed, and the cells were washed once with PBS. […] The mixture also contained the compounds in concentrations ranging from 10 to 0.3 μM.

The next data set concerns A549 cells. The experiment in a line: Cytotoxicity assay (AlamarBlue). The following applies: read-out: CC50 (μM), cytotoxic concentration 50%; A549 cell line, 48 h. Here is the method: Cytotoxicity Assay. The cytotoxicity of the compounds was analyzed by commercial kit AlamarBlue® (Invitrogen, Ref. DAL1025). A549 cells at a density of 5×10^3 cells per well in 96-well plates were seeded. […] Cells were then incubated at 37° C. for 48 h following the kit protocol. The cytotoxic concentration 50 (CC50) value was obtained using the statistical package GraphPad Prism. This assay was performed in duplicate.
(In general: Alamar Blue is a resazurin reagent that responds to reducing activity.)

The structures appear in SMILES notation.

By inhibition is commonly meant the share of the control response that was lost under treatment. Broadly, the IC50 is the concentration at which inhibition is half-maximal. On to `CC(C)[C@H](NC(=O)c1cc(Cl)ccc1O)C(=O)Nc1cc(C(F)(F)F)cc(C(F)(F)F)c1` [Compound 65, (S)—N-(1-((3,5-Bis(trifluoromethyl)phenyl)amino)-3-methyl-1-oxobutan-2-yl)-5-chloro-2-hydroxybenzamide], for which, in the data set with HAdV5-GFP, the “Selectivity index (SI)” value came to 77.4, the inhibition at 10 µM turned out to be 99.5 ± 0.7% and the IC50 came to 0.4 µM. For the same compound, the CC50 in the data set on A549 cells was found to be 30.9 µM.
In the case of `CC(C)[C@H](NC(=O)c1cc(Cl)ccc1O)C(=O)Nc1cc(F)cc(C(F)(F)F)c1` [Compound 67, (S)-5-Chloro-N-(1-((3-fluoro-5-(trifluoromethyl)phenyl)amino)-3-methyl-1-oxobutan-2-yl)-2-hydroxybenzamide], in the data set with HAdV5-GFP, the “Selectivity index (SI)” value was 65.2, the inhibition at 10 µM worked out at 95.8 ± 5.9% and the IC50 was 0.66 µM. Moreover, in the data set on A549 cells, the CC50 was determined as 43 µM.
The corresponding values for `CC(C)[C@H](NC(=O)c1cc(Cl)ccc1O)C(=O)Nc1ccc(F)c(F)c1` [Compound 68, (S)-5-Chloro-N-(1-((3,4-difluorophenyl)amino)-3-methyl-1-oxobutan-2-yl)-2-hydroxybenzamide] are 32.1, 98.3 ± 2.4%, 2.96 µM and 95 ± 18.7 µM.
On the same counts, the results for `O=C(N[C@@H](Cc1ccccc1)C(=O)Nc1cc(C(F)(F)F)cc(C(F)(F)F)c1)c1cc(Cl)ccc1O` [Compound 69, (S)—N-(1-((3,5-Bis(trifluoromethyl)phenyl)amino)-1-oxo-3-phenylpropan-2-yl)-5-chloro-2-hydroxybenzamide] are 44.9, 99 ± 1.4%, 0.4 µM and 17.9 µM.
In the case of `CS(=O)(=O)Nc1ccc(Cl)cc1C(=O)NCC(=O)Nc1ccc([N+](=O)[O-])cc1Cl` [Compound 72, 5-Chloro-N-(2-((2-chloro-4-nitrophenyl)amino)-2-oxoethyl)-2-(methylsulfonamido)benzamide], in the data set on HAdV5-GFP, the “Selectivity index (SI)” value turned out to be 14.6, the inhibition at 10 µM came to 99.6 ± 5.5% and the IC50 amounted to 9.65 ± 0.01 µM. The CC50 with A549 cells turned out to be 141 ± 13.5 µM.
As for `CCNc1ccc(NC(=O)c2cc(Cl)ccc2O)c(Cl)c1` [Compound 79, 5-Chloro-N-(2-chloro-4-(ethylamino)phenyl)-2-hydroxybenzamide], in the data set on HAdV5-GFP, the “Selectivity index (SI)” value stood at 13.9, the inhibition at 10 µM was 100% and the IC50 is 2.18 µM. Further, the CC50 with A549 cells came out at 30.2 ± 4.1 µM.
Regarding `CCCNc1ccc(NC(=O)c2cc(Cl)ccc2O)c(Cl)c1` [Compound 80, 5-Chloro-N-(2-chloro-4-(propylamino)phenyl)-2-hydroxybenzamide], in the data set with HAdV5-GFP, the “Selectivity index (SI)” value came to 4.5, the inhibition at 10 µM was determined as 100% and the IC50 stood at 5.04 µM. Also, the CC50 in the data set with A549 cells was found to be 22.5 ± 10.6 µM.
For `CC(C)Nc1ccc(NC(=O)c2cc(Cl)ccc2O)c(Cl)c1` [Compound 81, 5-Chloro-N-(2-chloro-4-(isopropylamino)phenyl)-2-hydroxybenzamide], in the data set on HAdV5-GFP, the “Selectivity index (SI)” value is recorded as 12.5, the inhibition at 10 µM was 100% and the IC50 was 0.88 µM. For the same compound, in the data set on A549 cells, the CC50 is 11 ± 1.4 µM.
As to `CC(C)CNc1ccc(NC(=O)c2cc(Cl)ccc2O)c(Cl)c1` [Compound 82, 5-Chloro-N-(2-chloro-4-(isobutylamino)phenyl)-2-hydroxybenzamide], in the data set with HAdV5-GFP, the “Selectivity index (SI)” value is reported as 67.4, the inhibition at 10 µM turned out to be 100% and the IC50 turned out to be 0.89 µM. The CC50 with A549 cells is 60 ± 15 µM.
As to `CCCCCCC(C)Nc1ccc(NC(=O)c2cc(Cl)ccc2O)c(Cl)c1` (stereo not shown) [Compound 83, 5-Chloro-N-(2-chloro-4-(octan-2-ylamino)phenyl)-2-hydroxybenzamide], in the data set with HAdV5-GFP, the “Selectivity index (SI)” value is 73.4, the inhibition at 10 µM turned out to be 100% and the IC50 amounted to 0.32 µM. Besides, the CC50 in the data set on A549 cells is 23.5 ± 3 µM.

The values are drawn from patent US20230140290A1, “SALICYLAMIDE DERIVATIVES AND RELATED METHODS OF MAKING” (THE BOARD OF REGENTS OF THE UNIVERSITY OF TEXAS SY, priority 2020, published 2023).
